From ChEMBL document CHEMBL3045642, “Synthesis of biologically active drimanes and homodrimanes from ()-sclareol” (Tetrahedron, 1995)
In brackets after ≈: the same amount, converted by molar mass.

Legend:
Spodoptera littoralis [1] = assay: Antifeedant activity against Spodoptera littoralis at 100 ppm; format: functional
Spodoptera littoralis [2] = assay: Antifeedant activity against Spodoptera littoralis at 10 ppm; format: functional
Salmonella typhimurium = assay: Antibacterial activity against Salmonella enterica subsp. enterica serovar Typhimurium after 24 hr; format: functional
Saccharomyces cerevisiae = assay: Antifungal activity against Saccharomyces cerevisiae S3 after 48 hr; format: functional; conditions: S3, 48 h
Staphylococcus aureus = assay: Antibacterial activity against Staphylococcus aureus ATCC 8 after 24 hr; format: functional; conditions: ATCC 8, 24 h
Proteus = assay: Antibacterial activity against Proteus after 24 hr; format: functional
Candida albicans = assay: Antifungal activity against Candida albicans CECT 1394 after 48 hr; format: functional; conditions: CECT 1394, 48 h
Cryptococcus neoformans = assay: Antifungal activity against Cryptococcus neoformans CECT 1075 after 48 hr; format: functional; conditions: CECT 1075, 48 h
Enterococcus faecalis = assay: Antibacterial activity against Enterococcus faecalis OGIX after 24 hr; format: functional
Bacillus subtilis = assay: Antibacterial activity against Bacillus subtilis CECT 397 after 24 hr; format: functional; conditions: CECT 397, 24 h
Pseudomonas aeruginosa = assay: Antibacterial activity against Pseudomonas aeruginosa after 24 hr; format: functional
SK-MEL-28 = assay: Cytotoxicity against Homo sapiens (human) SK-MEL-28 cells; format: functional, cell-based
P388 = assay: Cytotoxicity against […] cells; format: functional, cell-based; conditions: Mus musculus
A549 = assay: Cytotoxicity against Homo sapiens (human) A549 cells; format: functional, cell-based
HT-29 = assay: Cytotoxicity against Homo sapiens (human) HT-29 cells; format: functional, cell-based
Spodoptera littoralis [3] = assay: Antifeedant activity against Spodoptera littoralis; format: functional, organism-based

| MIC (Salmonella typhimurium) | MIC (Saccharomyces cerevisiae) | MIC (Staphylococcus aureus) | MIC (Proteus) | MIC (Candida albicans) | MIC (Cryptococcus neoformans) | MIC (Enterococcus faecalis) | MIC (Bacillus subtilis) | MIC (Pseudomonas aeruginosa) | Compound | AFI (Spodoptera littoralis [1]) | AFI (Spodoptera littoralis [2]) | IC50 (SK-MEL-28) | IC50 (P388) | IC50 (A549) | IC50 (HT-29) | Activity (Spodoptera littoralis [3]) |
| --- | --- | --- | --- | --- | --- | --- | --- | --- | --- | --- | --- | --- | --- | --- | --- | --- |
|  |  |  |  |  |  |  |  |  | C=C1C(=O)C[C@H]2C(C)(C)CCC[C@]2(C)[C@H]1C=O | 18.5% | 40.2% |  |  |  |  |  |
| > 100 µg/mL | 100 µg/mL (≈ 427 µM) | > 100 µg/mL | > 100 µg/mL | > 100 µg/mL | > 100 µg/mL | > 100 µg/mL | > 100 µg/mL | > 100 µg/mL | CC1(C)CCC[C@]2(C)[C@@H](C=O)C(C=O)=CC[C@@H]12 [POLYGODIAL] | 7.4% | 24.9% | 2.5 µg/mL (≈ 10.7 µM) |  |  |  |  |
| > 100 µg/mL | 100 µg/mL (≈ 403 µM) | 100 µg/mL (≈ 403 µM) | > 100 µg/mL | > 100 µg/mL | > 100 µg/mL | > 100 µg/mL | 100 µg/mL (≈ 403 µM) | 100 µg/mL (≈ 403 µM) | CC1(C)CCC[C@]2(C)[C@@H](CC=O)C(C=O)=CC[C@@H]12 | 51.7% | -17.9% | 5 µg/mL (≈ 20.1 µM) | 2.5 µg/mL (≈ 10.1 µM) | 2.5 µg/mL (≈ 10.1 µM) | 5 µg/mL (≈ 20.1 µM) | Dose-dependent effect |
| > 100 µg/mL | > 100 µg/mL | > 100 µg/mL | > 100 µg/mL | > 100 µg/mL | > 100 µg/mL | > 100 µg/mL | > 100 µg/mL | 100 µg/mL (≈ 403 µM) | C=C1C(=O)C[C@H]2C(C)(C)CCC[C@]2(C)[C@H]1CC=O | 43.7% | -10% | 2.5 µg/mL (≈ 10.1 µM) | 1.2 µg/mL (≈ 4.83 µM) | 1.2 µg/mL (≈ 4.83 µM) | 2.5 µg/mL (≈ 10.1 µM) | Dose-dependent effect |
